Measurements: patent publication US20260007634A1, “PHARMACEUTICAL COMPOSITIONS FOR THE TREATMENT OF ALLERGIC DISEASES” (KINKI UNIVERSITY, priority 2022, published 2026)

Tests used:
[1] = system: B cells collected from mice; experiment: BAFF-induced differentiation into mature B cells (IgM/IgD flow cytometry); type: cell-based, mouse; details: 100 ng/mL BAFF, 10 days, 100 μM mangiferin, 20 μM 1,3,5,6-tetrahydroxyxanthone, 10 μM others; for population IgM positive and IgD positive (mature B cells): control 0, BAFF only 45.6; for population IgM positive and IgD negative (immature B cells): control 0.529, BAFF only 42.3; for population IgM negative and IgD negative (pre-B cells): control 99.5, BAFF only 11.7
Method: B cells collected from mice were cultured in RPMI 1640 medium for 1 day. Then, 100 μM mangiferin, 10 μM mangiferin 8a, 10 μM norathyriol, 20 μM 1,3,5,6-tetrahydroxyxanthone, 10 μM xanthohydrol, 10 μM α-mangostin, 10 μM of γ-mangostin were added to B cell, and after 1 day of culture, 100 ng/mL of BAFF was added, followed by 10 days of culture. After 10 days of culture, cells were stained with anti-IgM and anti-IgD antibodies, markers of B cells, and the expression of IgM and IgD was measured using BD LSRFortessa. Note that IgM negative and IgD negative indicates pre-B cells, IgM positive and IgD negative indicates immature B cells, and IgM positive and IgD positive indicates mature B cells.

NF-κB p52 = experiment: BAFF-stimulated B cells, nuclear NF-κB p52 (Western blotting); type: cell-based, mouse; details: vs 100 ng/mL BAFF; 100 μM mangiferin, 20 μM 1,3,5,6-tetrahydroxyxanthone, 10 μM others
Method: (§1) Spleens were harvested from 6-week-old male Balb/c mice and B cells were isolated. After isolation, the cells were seeded in […] dish and cultured in RPMI 1640 medium for 1 day and used as control. In addition, B cells were seeded into 100 mm^2 dish, and after 1 day of culture, 100 ng/mL BAFF was added and cultured for 1 h. Furthermore, B cells were seeded in […] dish, and after 1 day of culture, 100 μM mangiferin, 10 μM mangiferin 8a, 10 μM norathyriol, 20 μM 1,3,5,6-tetrahydroxyxanthone, 10 μM xanthohydrol, 10 μM of α-mangostin, and 10 μM of γ-mangostin were added to B cells, and after 23 h, 100 ng/mL BAFF was added to each, and the cells were incubated for 1 h. All were incubated at 37° C. and 5% CO2.
(§2) Proteins were extracted with cell lysate and used as samples. Each sample was transferred to a PVDF membrane after SDSPAGE and assayed with anti-phospho-NIK, anti-NIK, anti-NF-κB p52, anti-NF-κB p65 and anti-Lamin antibodies.
(§3) The antibody species is indicated in the vertical direction. Specifically, in the case of anti-phospho-NIK antibody (described as “Phospho-NIK”), anti-NIK antibody (described as “NIK”), anti-NF-κB p52 antibody (described as “NF-κB p52 nuclear”), anti-NF-κB p65 antibody (described as “NF-κB p65 nuclear”) and anti-Lamin antibody (described as “Lamin”).

[2] = system: B cells collected from mice; experiment: BAFF-induced differentiation into plasma cells (CD138 flow cytometry); type: cell-based, mouse; details: 100 ng/mL BAFF, 10 days; 100 μM mangiferin, 20 μM 1,3,5,6-tetrahydroxyxanthone, 10 μM others; vs BAFF-added group
Method: B cells collected from mice were cultured in RPMI 1640 medium for 1 day. Then, 100 μM mangiferin, 10 μM mangiferin 8a, 10 μM norathyriol, 20 μM 1,3,5,6-tetrahydroxyxanthone, 10 μM xanthohydrol, 10 μM α-mangostin, 10 μM of γ-mangostin were added to B cell, and after 1 day of culture, 100 ng/mL of BAFF was added, followed by 10 days of culture. After 10 days of culture, cells were stained with anti-CD138 antibody, a marker of plasma cells, and CD138 expression was measured using BD LSRFortessa.
In all figures, the horizontal axis represents the expression level of CD138 and the vertical axis represents the number of cells.

NIK = target: T1, NIK (Mus musculus, UniProt Q9WUL6); experiment: BAFF-induced NIK activation in B cells (Western blotting, phospho-NIK); type: cell-based; details: for phospho-NIK band (immunoblotting): 100 ng/mL BAFF 1 h after 23 h compound, 100 μM mangiferin, 20 μM 1,3,5,6-tetrahydroxyxanthone, 10 μM others; for inhibition of NIK activity compared with mangiferin: general statement in the description, referring to the examples
T1 construct: Proteins were extracted with cell lysate and used as samples; endogenous in cells; host or cells: primary splenic B cells from 6-week-old male Balb/c mice
Method: as §1, §2, §3

IgE antibody = experiment: Serum IgE antibody ELISA, atopic dermatitis mice; type: in vivo, mouse; details: day 7, topical application, control 1214, vehicle (MC903) 2588
Method: (§4) MC903 at 2 nM was applied to the right auricle of a 6-week-old male Balb/c (Japan SLC Inc.). Starting 8 h later, 5% norathyriol aqueous solution (1 mL of ethanol containing […] of norathyriol), betamethasone ointment, and delgocitinib ointment were applied to the auricle for 7 days. The measurement of auricular skin swelling was calculated by calipers. The day on which the first application of the compound was made was defined as day 0. Betamethasone and delgocitinib are currently in clinical use in atopic dermatitis and were used as control drugs in this example.
Serum was collected from mice on day 7 in Example 1, and IgE antibody production was measured by enzyme-linked immunosorbent assay (ELISA). This assay was performed using a mouse IgE antibody ELISA kit (R&D).

IL-5 = experiment: Auricular tissue IL-5 ELISA, atopic dermatitis mice; type: in vivo, mouse; details: day 7, topical application, control 15, vehicle 32
Method: as §4
The mouse IL-5 ELISA kit (R&D) was used for this measurement.

TSLP = experiment: Auricular tissue TSLP ELISA, atopic dermatitis mice; type: in vivo, mouse; details: day 7, topical application, control 317, vehicle 1533
Method: as §4
The mouse TSLP ELISA kit (R&D) was used for this measurement.

IL-4 = experiment: Auricular tissue IL-4 ELISA, atopic dermatitis mice; type: in vivo, mouse; details: day 7, topical application, control 56, vehicle 152
Method: as §4
The mouse IL-4 ELISA kit (R&D) was used for this measurement.

T1 sequence (Q9WUL6 whole entry): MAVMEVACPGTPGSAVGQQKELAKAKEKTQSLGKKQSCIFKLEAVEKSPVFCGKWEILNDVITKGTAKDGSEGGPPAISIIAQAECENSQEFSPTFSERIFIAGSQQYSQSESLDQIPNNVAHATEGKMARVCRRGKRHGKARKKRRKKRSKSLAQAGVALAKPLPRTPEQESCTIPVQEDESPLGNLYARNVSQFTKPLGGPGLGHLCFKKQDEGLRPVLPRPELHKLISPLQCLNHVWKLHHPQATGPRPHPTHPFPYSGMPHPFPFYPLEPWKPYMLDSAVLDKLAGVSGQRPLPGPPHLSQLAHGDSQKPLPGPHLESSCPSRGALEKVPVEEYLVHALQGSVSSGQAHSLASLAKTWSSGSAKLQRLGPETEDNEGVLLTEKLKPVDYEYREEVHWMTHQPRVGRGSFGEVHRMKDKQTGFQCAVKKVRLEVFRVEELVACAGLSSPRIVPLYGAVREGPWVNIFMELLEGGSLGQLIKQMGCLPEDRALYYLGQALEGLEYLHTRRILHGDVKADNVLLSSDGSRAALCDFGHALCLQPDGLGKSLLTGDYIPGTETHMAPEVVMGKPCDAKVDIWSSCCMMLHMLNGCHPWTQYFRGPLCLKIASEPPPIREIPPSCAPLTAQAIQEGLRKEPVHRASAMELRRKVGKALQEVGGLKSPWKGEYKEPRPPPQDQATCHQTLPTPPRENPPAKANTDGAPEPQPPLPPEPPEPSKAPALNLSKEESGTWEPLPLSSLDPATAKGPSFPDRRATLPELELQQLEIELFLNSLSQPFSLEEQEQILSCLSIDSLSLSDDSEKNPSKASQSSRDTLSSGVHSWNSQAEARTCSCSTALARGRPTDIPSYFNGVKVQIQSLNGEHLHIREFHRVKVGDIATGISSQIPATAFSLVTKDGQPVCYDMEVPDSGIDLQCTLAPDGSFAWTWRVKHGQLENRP

Row | SMILES | population IgM positive and IgD positive (mature B cells) [1] | population IgM positive and IgD negative (immature B cells) [1] | population IgM negative and IgD negative (pre-B cells) [1] | nuclear NF-κB p52 band (immunoblotting) (NF-κB p52) | CD138 expression [2] | phospho-NIK band (immunoblotting) (NIK) | inhibition of NIK activity compared with mangiferin (NIK) | amount of IgE antibody (IgE antibody) | IL-5 secretion (IL-5) | TSLP secretion (TSLP) | IL-4 secretion (IL-4)
1 | O=c1c2ccc(O)c(O)c2oc2cc(O)cc(O)c12 [1,3,5,6-tetrahydroxyxanthone] | 0% | 2.92% | 96.5% | fainter | significantly decreased CD138 expression | fainter | more inhibition of NIK activity than mangiferin |  |  |  | 
2 | C[C@H]1C[C@H]2[C@@H]3CCC4=CC(=O)C=C[C@]4(C)[C@@]3(F)[C@@H](O)C[C@]2(C)[C@@]1(O)C(=O)CO [betamethasone] |  |  |  |  |  |  |  | 1175 ng/mL | 8 pg/mL | 651 pg/mL | 45 pg/mL
3 | C[C@H]1CN(C(=O)CC#N)[C@]12CCN(c1ncnc3[nH]ccc13)C2 [delgocitinib] |  |  |  |  |  |  |  | 1812 ng/mL | 33 pg/mL | 971 pg/mL | 159 pg/mL
4 | O=c1c2cc(O)c(O)cc2oc2cc(O)c([C@@H]3O[C@H](CO)[C@@H](O)[C@H](O)[C@H]3O)c(O)c12 [mangiferin] | 0% | 3.24% | 95.8% | fainter | significantly decreased CD138 expression | fainter |  |  |  |  | 
5 | OC1c2ccccc2Oc2ccccc21 [xanthohydrol] | 0% | 3.64% | 96.3% | fainter | significantly decreased CD138 expression | fainter | more inhibition of NIK activity than mangiferin |  |  |  | 
6 | COc1c(O)cc2oc3cc(O)c(CC=C(C)C)c(O)c3c(=O)c2c1CC=C(C)C [α-mangostin] | 0.363% | 21.2% | 78.1% | fainter | significantly decreased CD138 expression | fainter | more inhibition of NIK activity than mangiferin |  |  |  | 
7 | CC(C)=CCc1c(O)cc2oc3cc(O)c(O)c(CC=C(C)C)c3c(=O)c2c1O [γ-mangostin] | 0.561% | 19.7% | 79.7% | fainter | significantly decreased CD138 expression | fainter | more inhibition of NIK activity than mangiferin |  |  |  | 
